Test [1] is described as follows: Neu5Ac/Neu5Gc glycan microarray analysis. The settings on record: ZBiotech Neu5Gc/Neu5Ac N-Glycan Array, FIG. 1A. The test is classed as binding. From the text:
A Neu5Ac/Neu5Gc glycan microarray (as previously used in Wang et al, 2018, Biophys Biochem Res Commun 500:765-771; ZBiotech Neu5Gc/Neu5Ac N-Glycan Array) was utilised to determine the binding of SubBA12 to sialylated glycans with SubB2M used as a control. This glycan array comprises over 40 match pairs of glycans covalently linked to the array slide surface. Each pair of glycans is identical apart from the presence of either a Neu5Ac or Neu5Gc moiety.
Neu5Ac/Neu5Gc glycan array slides were purchased from Z-Biotech (Aurora, Colorado, USA, https://www.zbiotech.com/neu5gc-neu5ac-n-glycan-array.html). A 16-subarray slide array was used and glycan array analysis of SubB2M and SubBA12 was performed as per the manufacturer's protocols. Arrays were scanned using a Innocan 1100AL laser scanner and analysed using Mapix array analysis software.

A short description of test [2]: SPR analysis of glycan binding (all tested glycans). To be noted: lectin immobilized on CM5 chip; glycans up to a concentration of 20 μM; FIG. 1B. On the procedure:
SubBA12 was analysed for binding to a range of Neu5Ac, Neu5Gc and non-sialylated synthetic oligosaccharides using SPR.
For glycan analysis, SubB2M was immobilized through flow cells 2 and 3 and SubBA12 was immobilized through flow cell 4 (capture levels: 5000-6000 Response Units (RU)) onto a series S sensor chip CM5 (GE) using the NHS capture kit. Flow cell 1 was run as a blank immobilization. Glycans purchased from Chemily Glycoscience (Atlanta, GA) were analysed across a five-fold dilution series in PBS at a maximum concentration of 20 μM. Analysis was run using single cycle analysis and double reference subtraction on the Biacore S200 evaluation software.
(Surface plasmon resonance follows binding to a sensor surface in real time, without labels.)

For test [3] the following is noted: Ser12>Ala12 mutation; described previously (Byres et al, 2008); cited from earlier work.

“Also recorded” adds a separate entry of the source.

As to “SubBA12: mutant form of SubB (Ser12>Ala12) having the amino acid sequence of SEQ ID NO: 4; lacks or has substantially reduced sialic acid binding”, in test [1], the “binding to Neu5Ac-containing glycans on glycan array” value is “Essentially no binding; also recorded: little to no recognition” and the “binding to Neu5Gc-containing glycans on glycan array” value was “Essentially no binding; also recorded: little to no recognition”. Also, the “binding (concentration dependent interaction) to any of the tested glycans by SPR” value in test [2] was “No binding; also recorded: No concentration dependent interactions”. For the same substance, the “binding to sialylated glycans” value in test [3] is reported as “cannot bind”.

The values above are taken from patent US20240239846A1, “METHODS OF ANALYSING A SAMPLE” (THE UNIVERSITY OF ADELAIDE, priority 2021, published 2024).
